Literature values, collected in publication PMC6344135, “Analgesic effects of the cathepsin K inhibitor L-006235 in the monosodium iodoacetate model of osteoarthritis pain” (Pain Reports, 2018).

Experiments:
[1] = tested on: rabbit ACLT and dog partial medial meniscectomy models; design: method as in PMID 29523155; details: once daily for 7 weeks (rabbit), 28 days (dog)
[2] = tested on: surgical model of OA; details: pain not analysed
[3] = tested on: MIA model of OA pain; details: preventative and reversal

In the case of `C#C[C@@H]1CN(C(=O)[C@H](CC(C)C)NC(=O)c2ccc(-c3nc(N4CCN(C)CC4)sc3F)cc2)[C@@H]2C(=O)CO[C@H]12` [MIV-711], the joint pathology [1] is listed as “prophylactic and therapeutic effects”.
For `NCCCC(O)(P(=O)(O)O)P(=O)(O)O` [alendronate], the “bone resorption and cartilage” value [2] is listed as “inhibited bone resorption and had chondroprotective effects”.
In the case of `O=P(O)(O)C(O)(Cn1ccnc1)P(=O)(O)O` [zoledronate], the “pain behaviour in MIA rats” value [3] is listed as “Significant preventative, and reversal, effects”.
